Measurements: ChEMBL document CHEMBL1201862, “PubChem BioAssay data set” (2004)
Active and inactive are the calls of the source.

Key:
[1] = blockers of bursicon-stimulated LGR2 cAMP reporter – cell-based, HEK293, CRE-luciferase reporter, cherry pick, set 2, dose response (AID 743343); assay type: functional;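 also: transfected cells were stimulated with diluted bursicon conditioned medium after compound addition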
[2] = A549 cell cytotoxicity, dose response, cytotoxicity control, plate reader, cherry-pick, antagonist series (AID 743412); assay type: functional, cell-based
[3] = blockade of melanocortin 4 receptor signaling – cell-based, plate reader, cherry pick, counter-screen for LGR2 antagonist project, dose response (AID 743444); assay type: functional;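 also: transfected HEK 293 cells stimulated with alpha-MSH peptide; potency of inhibitors of the alpha-MSH evoked signal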
HEK293 = assay: EBV LMP1 TES2 canonical NF-kB signalling blockers – cell-based, HEK293, luciferase, cherry-pick, dose response (AID 588343); assay type: functional; details: Homo sapiens
[4] = HGIII-sPLA2 enzyme inhibition potency – biochemical, QFRET, IC50, dose response (AID 743457);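 also: green fluorescence rise as the enzyme cleaves BODIPY PC-A2 in liposomes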
[5] = target: SWI/SNF-related matrix-associated actin-dependent regulator of chromatin subfamily A member 2 (Homo sapiens, UniProt P51531); assay: Luminescence-based cell-based high throughput dose response assay to identify activators of the function of SWI/SNF related, matrix associated, actin dependent regulator of chromatin, subfamily a, member 2 (SMARCA2, BRM).; assay type: functional
SWI/SNF-related matrix-associated actin-dependent regulator of chromatin subfamily A member 2, sequence (P51531 whole entry): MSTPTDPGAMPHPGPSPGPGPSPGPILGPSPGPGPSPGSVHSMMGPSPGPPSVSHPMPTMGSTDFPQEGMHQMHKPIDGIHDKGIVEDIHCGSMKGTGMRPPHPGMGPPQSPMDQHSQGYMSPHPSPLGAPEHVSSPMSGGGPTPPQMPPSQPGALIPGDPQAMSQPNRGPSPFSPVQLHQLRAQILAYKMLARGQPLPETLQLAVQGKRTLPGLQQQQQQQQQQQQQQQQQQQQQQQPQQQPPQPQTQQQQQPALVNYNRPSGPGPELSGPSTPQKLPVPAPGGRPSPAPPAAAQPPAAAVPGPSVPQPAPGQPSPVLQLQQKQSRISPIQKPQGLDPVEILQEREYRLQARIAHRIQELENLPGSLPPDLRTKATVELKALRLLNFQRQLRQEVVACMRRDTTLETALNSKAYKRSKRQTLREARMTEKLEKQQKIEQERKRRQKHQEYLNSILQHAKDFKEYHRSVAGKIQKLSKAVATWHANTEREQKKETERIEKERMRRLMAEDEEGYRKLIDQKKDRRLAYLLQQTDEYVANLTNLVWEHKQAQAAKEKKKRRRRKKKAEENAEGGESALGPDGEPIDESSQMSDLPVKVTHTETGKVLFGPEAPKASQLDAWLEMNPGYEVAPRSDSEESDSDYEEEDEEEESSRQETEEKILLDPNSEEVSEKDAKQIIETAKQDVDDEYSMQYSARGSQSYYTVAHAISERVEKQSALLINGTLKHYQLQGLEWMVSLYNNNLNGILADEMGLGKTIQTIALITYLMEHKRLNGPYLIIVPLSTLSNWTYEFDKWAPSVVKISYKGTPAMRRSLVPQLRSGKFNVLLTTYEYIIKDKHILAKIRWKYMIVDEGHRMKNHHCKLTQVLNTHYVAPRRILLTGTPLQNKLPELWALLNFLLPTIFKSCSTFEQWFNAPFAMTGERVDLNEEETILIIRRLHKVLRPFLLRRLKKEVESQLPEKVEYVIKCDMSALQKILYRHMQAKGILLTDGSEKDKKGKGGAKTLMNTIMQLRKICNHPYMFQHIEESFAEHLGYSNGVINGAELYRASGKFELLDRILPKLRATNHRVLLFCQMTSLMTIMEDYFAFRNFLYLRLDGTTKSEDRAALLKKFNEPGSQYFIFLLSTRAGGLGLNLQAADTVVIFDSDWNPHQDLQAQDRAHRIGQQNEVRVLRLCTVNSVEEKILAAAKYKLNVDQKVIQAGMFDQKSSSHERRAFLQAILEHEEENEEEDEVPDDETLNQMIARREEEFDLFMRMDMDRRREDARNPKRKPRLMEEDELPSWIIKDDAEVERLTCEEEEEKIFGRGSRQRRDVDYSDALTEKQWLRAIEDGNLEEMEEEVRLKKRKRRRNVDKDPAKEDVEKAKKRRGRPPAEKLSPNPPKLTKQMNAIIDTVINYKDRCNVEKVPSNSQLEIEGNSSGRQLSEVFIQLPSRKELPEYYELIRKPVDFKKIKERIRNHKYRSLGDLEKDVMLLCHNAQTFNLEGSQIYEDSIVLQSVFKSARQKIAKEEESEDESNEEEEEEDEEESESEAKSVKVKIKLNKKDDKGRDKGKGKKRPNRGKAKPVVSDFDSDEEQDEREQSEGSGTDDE

[6] = Counterscreen for activators of the function of SWI/SNF related, matrix associated, actin dependent regulator of chromatin, subfamily a, member 2 (SMARCA2, BRM): Luminescence-based cell-based high throughput dose response assay to identify non-selective compounds using the VP16 reporter assay.; assay type: functional
[7] = DRD fibroblast viability loss – cell-based, non-viral oncogenic, luminescence, dose response (AID 1934); assay type: functional; details: Homo sapiens
BJ [8] = assay: BJ-TERT fibroblast viability loss – cell-based, RAS-independent, luminescence, dose response (AID 1933); assay type: functional; details: Homo sapiens
[9] = target: Luciferin 4-monooxygenase (Photinus pyralis, UniProt P08659); assay: inhibition of purified Photinus pyralis luciferase – biochemical, luminescence, dose response (AID 1891)
Luciferin 4-monooxygenase, sequence (P08659 whole entry): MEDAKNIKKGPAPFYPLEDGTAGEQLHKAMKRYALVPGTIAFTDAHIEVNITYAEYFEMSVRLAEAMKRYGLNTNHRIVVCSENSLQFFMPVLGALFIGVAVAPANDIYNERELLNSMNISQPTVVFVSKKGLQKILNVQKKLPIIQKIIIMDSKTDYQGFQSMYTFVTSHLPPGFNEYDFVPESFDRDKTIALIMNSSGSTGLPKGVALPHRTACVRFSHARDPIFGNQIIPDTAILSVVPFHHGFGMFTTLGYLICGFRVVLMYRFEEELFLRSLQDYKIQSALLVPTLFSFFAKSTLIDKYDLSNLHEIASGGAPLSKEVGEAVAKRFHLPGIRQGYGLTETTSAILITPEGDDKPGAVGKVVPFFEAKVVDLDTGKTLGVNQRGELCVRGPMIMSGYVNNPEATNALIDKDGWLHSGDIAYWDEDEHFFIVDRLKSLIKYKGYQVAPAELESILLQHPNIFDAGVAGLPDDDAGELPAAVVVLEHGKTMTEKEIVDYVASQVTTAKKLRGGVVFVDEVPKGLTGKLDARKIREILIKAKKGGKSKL

[10] = Luminescence Cell-Based Dose Confirmation HTS to Identify Inhibitors of Platelet Dense Granule Release. [Related pubchem assays: 1663 (Primary HTS), 1678 (Summary of Project)]; assay type: functional
BJ [11] = assay: BJ-TERT-LT-ST fibroblast viability loss – cell-based, RAS-independent, luminescence, dose response (AID 1935); assay type: functional; details: Homo sapiens;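 also: BJ fibroblasts immortalized with TERT plus LT and ST oncogenes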
Caspase-6 = target: T1, Caspase-6 (Homo sapiens, UniProt P55212); assay: inhibition of CASP6 peptide cleavage – biochemical, VEID-R110 fluorescence, cherry-pick, dose response (AID 720632)
T1 sequence (P55212 whole entry): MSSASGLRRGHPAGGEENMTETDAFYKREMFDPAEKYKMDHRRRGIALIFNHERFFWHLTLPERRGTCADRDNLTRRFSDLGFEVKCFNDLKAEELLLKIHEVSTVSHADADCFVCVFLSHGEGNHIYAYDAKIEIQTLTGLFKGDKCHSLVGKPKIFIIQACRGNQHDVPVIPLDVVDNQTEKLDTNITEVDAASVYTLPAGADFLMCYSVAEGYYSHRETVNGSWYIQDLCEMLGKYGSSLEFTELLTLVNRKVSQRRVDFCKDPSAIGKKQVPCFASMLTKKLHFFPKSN

BJ [12] = assay: cells; assay type: functional, cell-based; details: Homo sapiens
[13] = microbe, parasite or virus in culture; assay type: functional; details: Mycobacterium tuberculosis
[14] = target: T2, Sentrin-specific protease 8 (Homo sapiens, UniProt Q96LD8); assay type: functional;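 also: luminescence read-out of SENP8 inhibition, dose-response confirmation following an ultra-high-throughput screen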
T2 sequence (Q96LD8 whole entry): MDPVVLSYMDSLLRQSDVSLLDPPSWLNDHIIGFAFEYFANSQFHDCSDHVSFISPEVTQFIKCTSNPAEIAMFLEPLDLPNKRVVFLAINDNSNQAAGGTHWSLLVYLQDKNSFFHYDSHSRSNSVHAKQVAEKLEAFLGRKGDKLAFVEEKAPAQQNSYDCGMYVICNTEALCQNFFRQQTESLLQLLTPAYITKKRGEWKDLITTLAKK

[15] = target: T3, Sentrin-specific protease 7 (Homo sapiens, UniProt Q9BQF6); assay type: functional;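 also: Luminescence-based dose-response confirmation of ultra-high-throughput screening hits, measuring inhibition of SENP7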
T3 sequence (Q9BQF6 whole entry): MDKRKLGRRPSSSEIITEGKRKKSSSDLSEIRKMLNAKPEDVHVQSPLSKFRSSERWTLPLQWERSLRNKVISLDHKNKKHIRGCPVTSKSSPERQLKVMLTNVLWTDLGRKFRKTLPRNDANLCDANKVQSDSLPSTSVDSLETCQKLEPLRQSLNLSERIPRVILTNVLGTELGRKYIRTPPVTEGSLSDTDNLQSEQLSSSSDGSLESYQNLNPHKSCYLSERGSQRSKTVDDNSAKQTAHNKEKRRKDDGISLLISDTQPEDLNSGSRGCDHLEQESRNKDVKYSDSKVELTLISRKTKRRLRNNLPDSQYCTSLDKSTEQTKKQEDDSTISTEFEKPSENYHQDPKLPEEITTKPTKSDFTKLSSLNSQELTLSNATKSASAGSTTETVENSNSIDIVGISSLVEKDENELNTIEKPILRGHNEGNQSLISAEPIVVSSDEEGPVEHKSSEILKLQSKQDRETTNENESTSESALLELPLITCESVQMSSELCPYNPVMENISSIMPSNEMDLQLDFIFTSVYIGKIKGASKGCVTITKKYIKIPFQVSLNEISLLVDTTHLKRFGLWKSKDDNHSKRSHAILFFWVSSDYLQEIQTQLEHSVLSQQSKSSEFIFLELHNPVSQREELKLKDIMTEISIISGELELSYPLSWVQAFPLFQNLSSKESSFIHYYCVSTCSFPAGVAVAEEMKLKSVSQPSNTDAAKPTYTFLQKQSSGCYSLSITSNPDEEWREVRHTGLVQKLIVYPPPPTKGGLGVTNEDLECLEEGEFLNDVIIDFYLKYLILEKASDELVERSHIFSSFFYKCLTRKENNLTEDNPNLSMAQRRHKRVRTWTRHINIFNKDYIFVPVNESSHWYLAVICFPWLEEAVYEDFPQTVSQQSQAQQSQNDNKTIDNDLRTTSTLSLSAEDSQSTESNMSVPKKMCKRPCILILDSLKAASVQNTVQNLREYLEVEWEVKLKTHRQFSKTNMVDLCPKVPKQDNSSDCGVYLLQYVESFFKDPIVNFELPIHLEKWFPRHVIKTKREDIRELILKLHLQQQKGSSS

[16] = viability of uninfected HEp-2 cells – cell-based, HTS, cytotoxicity control for RSV inhibitor project, dose response (AID 2410); assay type: functional; details: human respiratory syncytial virus
Caspase-3 = target: T4, Caspase-3 (Homo sapiens, UniProt P42574); assay type: functional;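 also: Dose-response selectivity test against caspase-3 for candidate inhibitors of sentrin-specific proteases (SENPs)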
T4 sequence (P42574 whole entry): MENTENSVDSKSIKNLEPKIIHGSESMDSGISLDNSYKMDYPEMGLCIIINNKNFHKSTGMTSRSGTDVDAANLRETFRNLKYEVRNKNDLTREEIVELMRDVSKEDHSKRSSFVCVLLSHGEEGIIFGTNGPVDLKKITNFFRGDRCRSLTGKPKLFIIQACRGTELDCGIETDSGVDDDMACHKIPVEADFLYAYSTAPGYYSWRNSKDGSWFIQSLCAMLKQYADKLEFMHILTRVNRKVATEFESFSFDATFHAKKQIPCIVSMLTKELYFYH

[17] = target: T5, Sentrin-specific protease 6 (Homo sapiens, UniProt Q9GZR1); assay type: functional;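 also: Luminescence-based dose-response confirmatory assay of SENP6 inhibition, following up an ultra-high-throughput screen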
T5 sequence (Q9GZR1 whole entry): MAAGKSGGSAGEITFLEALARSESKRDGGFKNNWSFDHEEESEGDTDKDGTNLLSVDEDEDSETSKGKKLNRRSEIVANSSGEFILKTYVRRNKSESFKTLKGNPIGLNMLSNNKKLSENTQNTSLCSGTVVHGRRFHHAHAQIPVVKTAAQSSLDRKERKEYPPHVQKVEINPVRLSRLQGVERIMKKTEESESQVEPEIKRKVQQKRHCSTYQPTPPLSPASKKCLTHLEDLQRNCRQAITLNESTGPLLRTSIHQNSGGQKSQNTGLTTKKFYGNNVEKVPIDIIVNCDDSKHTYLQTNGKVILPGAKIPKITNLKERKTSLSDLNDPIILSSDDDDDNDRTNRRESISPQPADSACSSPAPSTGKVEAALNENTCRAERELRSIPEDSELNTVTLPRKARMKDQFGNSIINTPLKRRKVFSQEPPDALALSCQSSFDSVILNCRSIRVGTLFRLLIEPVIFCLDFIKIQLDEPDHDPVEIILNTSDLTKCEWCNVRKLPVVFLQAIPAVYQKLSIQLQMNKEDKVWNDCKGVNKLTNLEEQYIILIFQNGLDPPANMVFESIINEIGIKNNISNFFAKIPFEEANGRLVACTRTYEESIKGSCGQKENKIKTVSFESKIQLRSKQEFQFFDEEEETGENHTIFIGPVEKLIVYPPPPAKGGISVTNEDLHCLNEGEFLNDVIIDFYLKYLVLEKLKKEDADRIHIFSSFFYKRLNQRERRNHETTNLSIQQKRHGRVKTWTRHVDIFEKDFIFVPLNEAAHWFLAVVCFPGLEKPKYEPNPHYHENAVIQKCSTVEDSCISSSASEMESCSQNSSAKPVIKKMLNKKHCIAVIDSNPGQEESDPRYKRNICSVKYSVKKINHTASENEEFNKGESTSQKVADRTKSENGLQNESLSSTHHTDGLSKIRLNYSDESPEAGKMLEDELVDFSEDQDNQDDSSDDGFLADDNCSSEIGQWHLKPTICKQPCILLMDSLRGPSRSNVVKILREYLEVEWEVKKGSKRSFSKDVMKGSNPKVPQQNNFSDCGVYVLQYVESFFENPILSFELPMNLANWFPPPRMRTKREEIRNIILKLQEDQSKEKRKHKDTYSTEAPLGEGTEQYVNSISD

[18] = target: T6, Fructose-bisphosphate aldolase (Mycobacterium tuberculosis, UniProt P9WQA3); assay: Fluorescence-based biochemical high throughput dose response assay for inhibitors of the fructose-bisphosphate aldolase (FBA) of M. tuberculosis.; assay type: functional
T6 sequence (P9WQA3 whole entry): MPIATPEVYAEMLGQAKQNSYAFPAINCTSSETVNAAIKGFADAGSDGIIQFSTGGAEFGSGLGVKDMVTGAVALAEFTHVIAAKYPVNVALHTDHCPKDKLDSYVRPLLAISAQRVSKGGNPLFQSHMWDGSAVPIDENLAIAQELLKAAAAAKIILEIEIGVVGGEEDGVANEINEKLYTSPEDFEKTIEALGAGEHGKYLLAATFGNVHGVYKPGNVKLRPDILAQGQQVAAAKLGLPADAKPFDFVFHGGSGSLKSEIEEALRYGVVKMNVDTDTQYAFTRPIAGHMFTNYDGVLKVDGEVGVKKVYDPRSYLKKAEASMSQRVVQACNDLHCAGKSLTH

[19] = Trypanosoma cruzi growth suppression in host cells – NIH3T3 host cells, beta-gal luminescence, confirmation (AID 2044); assay type: functional, cell-based;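 also: intracellular parasites grown in NIH/3T3 mouse fibroblasts as host cells; luminescent beta-galactosidase reporter signal from transgenic T. cruzi replicating inside host cells; inhibitors lower the luminescence signal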
[20] = NIH3T3 cell viability loss – ATP luminescence, mouse fibroblasts, counter-screen, dose response (AID 2010); assay type: functional, cell-based;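 also: cells exposed to compound for about 90 hours before reading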

For `Cc1ccc(C(=O)Nc2ccc3c(c2)OCCO3)cc1`, the AC50 [1] was 2.67 µM (active), the AC50 [2] was > 52 µM (inactive) and the AC50 [3] was 4.05 µM (active). For the same compound, the AC50 (HEK293) was 2.05 µM (active).
In the case of `C=CCn1c(C)c(C(C)=O)c(N2CCN(C(c3ccccc3)c3ccccc3)CC2)nc1=S`, the AC50 (HEK293) is reported as 63.8 µM (active).
In the case of `Sc1nnc(CCc2ccccc2)n1-c1ccc(Cl)cc1`, the IC50 [4] is reported as > 122 µM (inactive).
In the case of `COc1cc(OC)cc(-c2nc3ccccc3s2)c1`, the EC50 [5] is reported as > 91.1 µM (inactive) and the EC50 [6] is reported as > 91.1 µM (inactive).
With `Cn1c(N=Nc2ccccc2)nc2ccccc21` the EC50 [7] was 6.84 µM (inconclusive), the EC50 (BJ [8]) was 6.48 µM (active) and the EC50 [9] was 1.5 µM (active). The EC50 [10] was 1.78 µM (active), the EC50 (BJ [11]) was 9.38 µM (active) and the AC50 (Caspase-6) was 38.1 µM (active). For the same compound, the EC50 (BJ [12]) was 4.78 µM (inconclusive).
For `CC(C)(C)c1csc(NNC(=O)c2ccc(Cl)cc2)n1`, the IC50 [4] was > 122 µM (inactive).
In the case of `O=C1NC(=O)/C(=C/c2ccc(-c3cccc([N+](=O)[O-])c3)o2)S1`, the CC50 [13] is reported as > 40 µM (active), the IC50 [14] is reported as 55.7 µM (active) and the IC50 [15] is reported as 50.7 µM (active). The CC50 [16] was 1.93 µM (active), the IC50 (Caspase-3) was 13.6 µM (active) and the IC50 [17] was 17 µM (active).
In the case of `CCS(=O)(=O)N1N=C(c2ccc(NS(C)(=O)=O)cc2)CC1c1ccccc1` (stereo not drawn), the IC50 [18] is reported as > 0.37 µM (active).
With `O=C(Oc1c(CN2CCOCC2)cc(Cl)c2cccnc12)c1ccccc1F` the EC50 [5] was > 91.2 µM (inactive), the EC50 [19] was 1.65 µM (active) and the EC50 [6] was > 91.2 µM (inactive). The EC50 [20] was 8.05 µM (active).
With `O=C(NNc1nc(-c2ccccc2)cs1)c1ccco1` the IC50 [4] was > 122 µM (inactive).
